The record followed here is patent US10874745B2, “Antimicrobial peptides and methods of treating gram-negative pathogens: polar and non-polar face analogs” (priority 2017, dated 2020).

Values joined by “and” are separate entries in the source; they are usually repeats but may differ in a detail not shown here. Equal values may be shown once. Read-outs that look alike come from different tables or passages of the source. Non-standard residues stand in square brackets, D forms with d. Residues, ends and D or L forms follow the SMILES beside them. dDab = NCC[C@@H](N)C(=O)O

Series [1] concerns clinical isolates of Pseudomonas aeruginosa. The series is classed as cell-based. The following applies: geometric mean, 6 clinical isolates of P. aeruginosa.
Method: (§2) Measurement of Antimicrobial Activity (MIC): The minimal inhibitory concentration (MIC) is defined as the lowest peptide concentration that inhibited bacterial growth. MICs were measured by a standard microtiter dilution method in Mueller Hinton (MH) medium. Briefly, cells were grown overnight at 37° C. in MH broth and were diluted in the same medium. […] The plates were incubated at 37° C. for 24 h, and the MICs were determined.
Series [2] has as its system A. baumannii strains resistant to Polymyxin B and Colistin. The series is classed as cell-based. The following applies: geometric mean, 7 A. baumannii strains resistant to polymyxin B and colistin.
From the text: (§3) Gram-Negative Bacterial Strains used in this Study: All the A. baumannii strains used in this study were 1) obtained from the collection of Dr. Anthony A. Campagnari at the University of Buffalo and originally isolated from different patients and organs/tissues (strain 649, blood; strain 689, groin; strain 759, gluteus; strain 884, axilla; strain 985, pleural fluid); 2) were purchased from the American Type Culture Collection (ATCC, Manassas, Va., USA) (strain ATCC 17978, fatal meningitis; and strain ATCC 19606, urine); 3) obtained from MERCK (M89941, M89949, M89951, M89952, M89953, M89955 and M89963). These seven A. baumannii strains were resistant to polymyxin B and polymyxin E (Colistin).
as §2
The test system of series [3] is A. baumannii clinical isolates. Description: MIC, microtiter dilution in Mueller Hinton medium. The series is classed as cell-based. The following applies: geometric mean, 7 clinical isolates of A. baumannii.
From the text: as §3, §2
A further series has as its system human red blood cells. Kind of series: Hemolytic activity. The series is classed as cell-based. The following applies: for HC50: 50% hemolysis of human red blood cells after 18 hours at 37° C. The procedure:
(§1) Hemoglobin release was determined spectrophotometrically at 570 nm. […] […] […] With the peptides used in this study the inventors used the HC30/MIC ratio value to calculate the therapeutic index.

The nature of the next series: Hemolytic activity. The series is classed as cell-based, human. The following applies: 1% human erythrocytes (red blood cells), pH 7.4. The method, then:
as §1

The nature of series [4]: RP-HPLC retention time as measure of overall peptide hydrophobicity. The series is classed as physicochemical. The following applies: Zorbax SB-C8, 0.5% B/min from 2% B, 30° C. (Table 3). An excerpt:
Retention behavior in RP-HPLC is an excellent method to represent overall peptide hydrophobicity. Retention times of peptides are highly sensitive to the conformational status of the peptides upon interaction with the hydrophobic environment of the column matrix (Jiang, Z., et al., Chem. Biol. Drug Des. 2011; Chen, Y., et al., J. Peptide Research 2002, supra). The non-polar faces of amphipathic alpha-helical and amphipathic cyclic beta-sheet peptides represent a preferred binding domain for interaction with the hydrophobic matrix of the reversed-phase column (Zhou, N. E., et al., Peptide Research 1990, 3:8-20). In this study, the observed peptide hydrophobicity was determined by RP-HPLC retention time as described in the methods section and are relative hydrophobicities because they are dependent on the TFA concentration and organic solvent in the mobile phase, gradient rate, temperature, flow rate and the column used. […]

The mark [5] stands for this setting: 50% hemolysis of human red blood cells after 18 hours at 37° C., read-out: HC50.

As for `CC(=O)N[C@H](C)C(=O)N[C@H](CC(C)C)C(=O)N[C@H](CCCCN)C(=O)N[C@H](CCCCN)C(=O)N[C@H](CC(C)C)C(=O)N[C@H](CC(C)C)C(=O)N[C@H](CCCCN)C(=O)N[C@@H](C(=O)N[C@H](CC(C)C)C(=O)N[C@H](CO)C(=O)N[C@H](CCCCN)C(=O)N[C@H](C)C(=O)N[C@H](CCCNC(=N)N)C(=O)N[C@H](C)C(=O)N[C@H](C)C(=O)N[C@H](CCCNC(=N)N)C(=O)N[C@H](CC(C)C)C(=O)N[C@H](CCCCN)C(=O)N[C@@H](C(=O)N[C@H](CC(C)C)C(=O)N[C@H](CC(C)C)C(=O)N[C@H](CCCCN)C(=O)N[C@H](C)C(=O)N[C@H](CC(C)C)C(=O)N[C@H](CO)C(=O)N[C@H](CCCCN)C(N)=O)[C@H](C)O)[C@H](C)O` [D41(Arg13/Arg16)], the MICGM in series [1] was found to be 1.1 µM; in series [2], 0.8 µM; in series [3], 0.6 µM. Further, the HC50 in the series on human red blood cells is 7.2 µM. Besides, the HC50 at 18 h in the series “Hemolytic activity” (setting [5]) is 7.2 µM and 21 µg/mL.

With `CC(=O)N[C@H](C)C(=O)N[C@H](CC(C)C)C(=O)N[C@H](CCCCN)C(=O)N[C@H](CCCCN)C(=O)N[C@H](CC(C)C)C(=O)N[C@H](CC(C)C)C(=O)N[C@H](CCCCN)C(=O)N[C@@H](C(=O)N[C@H](CC(C)C)C(=O)N[C@H](CO)C(=O)N[C@H](CCCCN)C(=O)N[C@H](C)C(=O)N[C@H](CCN)C(=O)N[C@H](C)C(=O)N[C@H](C)C(=O)N[C@H](CCN)C(=O)N[C@H](CC(C)C)C(=O)N[C@H](CCCCN)C(=O)N[C@@H](C(=O)N[C@H](CC(C)C)C(=O)N[C@H](CC(C)C)C(=O)N[C@H](CCCCN)C(=O)N[C@H](C)C(=O)N[C@H](CC(C)C)C(=O)N[C@H](CO)C(=O)N[C@H](CCCCN)C(N)=O)[C@H](C)O)[C@H](C)O` [D41(Dbu13/Dbu16)] (Ac-[dA][dL][dK][dK][dL][dL][dK][dT][dL][dS][dK][dA][dDab][dA][dA][dDab][dL][dK][dT][dL][dL][dK][dA][dL][dS][dK]-NH2; N-terminus and C-terminus assumed), the results for the MICGM in series [1], in series [2] and in series [3] were 0.8 µM, 0.5 µM and 0.6 µM, respectively. In the series with human red blood cells, this compound returned an HC50 of 24.3 µM. For the same compound, the HC50 at 18 h in “Hemolytic activity” (setting [5]) is 24.3 µM and 68 µg/mL.

Take `CC(=O)N[C@H](C)C(=O)N[C@H](CC(C)C)C(=O)N[C@H](CCCCN)C(=O)N[C@H](CCCCN)C(=O)N[C@H](CC(C)C)C(=O)N[C@H](CC(C)C)C(=O)N[C@H](CCCCN)C(=O)N[C@@H](C(=O)N[C@H](CC(C)C)C(=O)N[C@H](CO)C(=O)N[C@H](CCCCN)C(=O)N[C@H](C)C(=O)N[C@H](CN)C(=O)N[C@H](C)C(=O)N[C@H](C)C(=O)N[C@H](CN)C(=O)N[C@H](CC(C)C)C(=O)N[C@H](CCCCN)C(=O)N[C@@H](C(=O)N[C@H](CC(C)C)C(=O)N[C@H](CC(C)C)C(=O)N[C@H](CCCCN)C(=O)N[C@H](C)C(=O)N[C@H](CC(C)C)C(=O)N[C@H](CO)C(=O)N[C@H](CCCCN)C(N)=O)[C@H](C)O)[C@H](C)O` [D41(Dpr13/Dpr16)]: the MICGM is 1.3 µM in series [1], 0.7 µM in series [2] and 0.6 µM in series [3]. The HC50 with human red blood cells turned out to be 22.6 µM. The HC50 at 18 h in the series “Hemolytic activity” (setting [5]) is 22.6 µM and 62.5 µg/mL.

Consider `CC(=O)N[C@H](C)C(=O)N[C@H](CC(C)C)C(=O)N[C@H](CCCCN)C(=O)N[C@H](CCCCN)C(=O)N[C@H](CC(C)C)C(=O)N[C@H](CC(C)C)C(=O)N[C@H](CCCCN)C(=O)N[C@@H](C(=O)N[C@H](CC(C)C)C(=O)N[C@H](CO)C(=O)N[C@H](CCCCN)C(=O)N[C@H](C)C(=O)N[C@H](CCCCN)C(=O)N[C@H](C)C(=O)N[C@H](C)C(=O)N[C@H](CCCCN)C(=O)N[C@H](CC(C)C)C(=O)N[C@H](CCCCN)C(=O)N[C@@H](C(=O)N[C@H](CC(C)C)C(=O)N[C@H](CC(C)C)C(=O)N[C@H](CCCCN)C(=O)N[C@H](C)C(=O)N[C@H](CC(C)C)C(=O)N[C@H](CO)C(=O)N[C@H](CCCCN)C(N)=O)[C@H](C)O)[C@H](C)O` [D41(Lys13/Lys16)], for which the MICGM in series [1] is 0.8 µM; in series [2], 0.4 µM; in series [3] it was 0.4 µM. In the series on human red blood cells, this compound registered an HC50 of 13.7 µM. Moreover, the HC50 at 18 h in “Hemolytic activity” (setting [5]) was 13.7 µM and 39 µg/mL.

For the compound `CC(=O)N[C@H](C)C(=O)N[C@H](CC(C)C)C(=O)N[C@H](CCCCN)C(=O)N[C@H](CCCCN)C(=O)N[C@H](CC(C)C)C(=O)N[C@H](CC(C)C)C(=O)N[C@H](CCCCN)C(=O)N[C@@H](C(=O)N[C@H](CC(C)C)C(=O)N[C@H](CO)C(=O)N[C@H](CCCCN)C(=O)N[C@H](C)C(=O)N[C@H](CCCN)C(=O)N[C@H](C)C(=O)N[C@H](C)C(=O)N[C@H](CCCN)C(=O)N[C@H](CC(C)C)C(=O)N[C@H](CCCCN)C(=O)N[C@@H](C(=O)N[C@H](CC(C)C)C(=O)N[C@H](CC(C)C)C(=O)N[C@H](CCCCN)C(=O)N[C@H](C)C(=O)N[C@H](CC(C)C)C(=O)N[C@H](CO)C(=O)N[C@H](CCCCN)C(N)=O)[C@H](C)O)[C@H](C)O` [D41(Orn13/Orn16)], the figures for the MICGM in series [1], in series [2] and in series [3] were 1.0 µM, 0.6 µM and 0.8 µM, respectively. Moreover, the HC50 in the series with human red blood cells is 34.0 µM. Further, the HC50 at 18 h in the series “Hemolytic activity” (setting [5]) is 34 µM and 96 µg/mL.

On to `CC(=O)N[C@H](CCCCN)C(=O)N[C@H](CC(C)C)C(=O)N[C@H](CCN)C(=O)N[C@H](CO)C(=O)N[C@H](CC(C)C)C(=O)N[C@H](CC(C)C)C(=O)N[C@H](CCN)C(=O)N[C@@H](C(=O)N[C@H](CC(C)C)C(=O)N[C@H](CO)C(=O)N[C@H](C)C(=O)N[C@H](C)C(=O)N[C@H](CCCCN)C(=O)N[C@H](CCN)C(=O)N[C@H](CCN)C(=O)N[C@H](CCCCN)C(=O)N[C@H](CC(C)C)C(=O)N[C@H](C)C(=O)N[C@@H](C(=O)N[C@H](CC(C)C)C(=O)N[C@H](CC(C)C)C(=O)N[C@H](CCN)C(=O)N[C@H](C)C(=O)N[C@H](CC(C)C)C(=O)N[C@H](CO)C(=O)N[C@H](CO)C(N)=O)[C@H](C)O)[C@H](C)O` [Peptide D104, Ac-KL(Dbu)SLL(Dbu)TLSAAK(Dbu)(Dbu)KLATLL(Dbu)ALSS-amide] (Ac-[dK][dL][dDab][dS][dL][dL][dDab][dT][dL][dS][dA][dA][dK][dDab][dDab][dK][dL][dA][dT][dL][dL][dDab][dA][dL][dS][dS]-NH2), for which the “tR, relative hydrophilicity/hydrophobicity” value in series [4] was 59.2 min. In addition, in the series with human red blood cells, the “Hemolysis of human red blood cells, in words” value is recorded as “basically no hemolysis”. Further, the HC50 at 18 h in “Hemolytic activity” (human) is > 4000 µg/mL and > 1.49 mM.

By HC50 is commonly meant the concentration giving 50% haemolysis.
